Assay [1] has as its system HepG2 (liver cancer) cells. The assay is described as follows: Real-time PCR Diabetes Array. The class given is cell-based. The method, then:
(§1) The treatment was initiated on 1×10^5 cells per well, following the procedure utilized in the PaCa2 cells (above, Examples 9-11). However, the total amount of RNA that was extracted from these samples was lower than expected. Reverse transcription is normally done using 1 μg of total RNA (determined by measurement at 260 nm). The maximum volume that can be used per reverse transcription is 8 μl.

Assay [2] has as its system HDFa cells. The assay is described as follows: SeaHorse XF analyzer OCR and ECAR. The following applies: normoxic and hypoxic, 5.5 mM and 22 mM glucose. It counts as cell-based, human. The source says: Environmental influencers (e.g., MIMs or Epi-shifters) may also be identified by changes in cellular energetics. One example of the measurement of cellular energetics are the real-time measures of the consumption of molecular oxygen and/or the change in pH of the media of a cell culture. For example, the ability of a potential epi-shifter to modulate the metabolic state of a cell may be analyzed using, for example, the XF24 Analyzer (Seahorse, Inc.). This technology allows for real time detection of oxygen and pH changes in a monolayer of cells in order to evaluate the bioenergetics of a cell microenvironment. The XF24 Analyzer measures and compares the rates of oxygen consumption (OCR), which is a measure of aerobic metabolism, and extracellular acidification (ECAR), which is a measure of glycolysis, both key indicators of cellular energetics.
(SeaHorse Biosciences Inc, North Billerica, Mass.).
In this experiment, the OCR and extracellular acidification rate (ECAR) in normal cells lines were obtained in the presence and absence of CoQ10 to determine baseline values. It was observed that in its native nutrient environment, the basal OCR rates in normal cells lines are different, and are usually a function of the physiological roles of the cells in the body.
FIGS. 29 and 30 describe the OCR in HDFa and HASMC cells grown in physiologically normal glucose (about 4.6 mM) and high glucose (hyperglycemic) conditions.
Table 53, below, describes the ECAR values (mpH/min) in HDFa cells in the presence or absence of CoQ10 under normoxic and hypoxic conditions at 5.5 mM and 22 mM glucose.

Assay [3] has as its system HepG2 (liver cancer) cells. Nature of the assay: Real-time PCR Apoptosis Array. The class given is cell-based. The method, then:
as §1
However, the array for 48 hours was run choosing FAM as the fluorophore instead of SYBR. Both FAM and SYBR fluoresce at the same wavelength.
Background: Quantitative PCR measures a nucleic acid by following its amplification.

In assay [4] the test system is ATP Citrate Lyase (ACL). Nature of the assay: Western blot of ATP citrate lyase levels in normal and cancer cells. It counts as cell-based, human. As to the method:
The whole cell pellets were resuspended one at a time in 1 mL of C7 buffer and transferred to labeled 15 mL tubes. The samples were then sonicated in the cold room on ice using 6 sonic pulses with the setting at #14. The samples were spun for a short time to 2500 g after sonication and the samples transferred to 2 ml tubes. The pH was verified of each sample (pH should be 9.0) using the foam remaining in the […] sample tubes.
After transfer each of the blots was placed in between 2 Whatman Filter papers and dried for 15-20 minutes. After drying the blots were labeled with the date, the type of samples and either blot 1 or blot 2 using a HB pencil. The molecular weight markers were outlined with the pencil and with single lines for the blue and a doublet for the colored markers. The blots were activated with methanol for 5 seconds, washed with water for 5 minutes, and TBST for 15 minutes. The blots were blocked for 1 hour with 5% blocking reagent in TBS-T at room temperature and then washed 3 times with TBS-T (1×-15′; 2×5′ each). Blot 1 was probed with the primary antibody for IDH1 (Cell Signaling #3997) in TBST with 5% BSA (at 1:1000 dilutions) and blot 2 with the rabbit polyclonal antibody for ATP Citrate Lyase in 5% BSA (Cell Signaling #4332) at 1:1000 dilution by incubation overnight at 4 deg C. with shaking. After the overnight incubation with primary antibodies, the blots were washed 3 times with TBS-T (1×-15′; 2×5′ each) and probed with the secondary antibody (antirabbit; 1:10,000 dilution) for 1 h on the orbital tilting shaker at room temperature. After 1 h of incubation with secondary antibodies, the blots were washed 3 times with TBS-T (1×-15′; 2×5′ each) and then incubated with ECF reagent for 5 mins and then each blot scanned with 5100 Fuji Laser scanner at 25 uM resolution, 16 bit, green laser, at 400V and at 500 V.
The samples were processed and run on a 4-12% Bis-Tris Novex NuPAGE gel as described above. The gels were run, transferred and stained essentially as described above.
The Isocitrate dehydrogenase blot was stripped by incubating for 30 minutes with methanol, followed by two 10 minute washes with TBS-T, then 30 minutes of incubation with stripping buffer at 50 deg C., and followed by two washes with 100 ml or more of TBS-T for 30′ each. The blot was scanned in laser scanner to check for complete stripping. The blot was activated with methanol for 5 seconds, washed with water for 5 minutes, and TBST for 15 minutes. The blot was blocked for 1 hour with 5% blocking reagent in TBS-T at room temperature and then washed 3 times with TBS-T (1×-15′; 2×5′ each). This was then probed with the rabbit polyclonal antibody for ATP Citrate Lyase in 5% BSA (Cell Signaling #4332) at 1:1000 dilution overnight at 4 deg C. with shaking. After the overnight incubation with primary antibody for ATP Citrate Lyase, the membrane was washed 3 times with TBS-T (1×-15′; 2×5′ each) and probed with the secondary antibody (antirabbit; 1:10,000 dilution) for 1 h on the orbital tilting shaker at room temperature. After 1 h of incubation with secondary antibodies, the blot was washed 3 times with TBS-T (1×-15′; 2×5′ each) and then incubated with ECF reagent for 5 minutes and then each blot scanned with 5100 Fuji Laser scanner at 25 uM resolution, 16 bit, green laser, at 400V and at 500 V.
In this experiment (western blot experiment 3), and in all of the experiments described below in this Example (i.e., western blot experiments 4 through 9), the cells were additionally treated with either 5 mM glucose (“5G”) or 22 mM glucose (“22G”). The samples derived from the cells were processed and run on a 4-12% Bis-Tris Novex NuPAGE gel as described above. The gels were run, transferred and stained essentially as described above.
The levels of IDH1, ATP citrate lyase and actin levels were determined by probing the blots with primary antibodies for IDH1, ATP citrate lyase and actin, essentially as described above.
In general terms: In western blotting, separated proteins are transferred to a membrane and probed.

In the case of `COC1=C(OC)C(=O)C(C/C=C(\C)CC/C=C(\C)CC/C=C(\C)CC/C=C(\C)CC/C=C(\C)CC/C=C(\C)CC/C=C(\C)CC/C=C(\C)CC/C=C(\C)CCC=C(C)C)=C(C)C1=O` [Q10, Coenzyme Q10], the “genes regulated in the Diabetes Arrays” value in assay [1] (100 μM Q10, PPARGC1A gene) is given as “PPARGC1A”; in assay [1] (100 μM Q10, PRKAA1 gene), “PRKAA1”; in assay [1] (100 μM Q10, SNAP25 gene) it was “SNAP25”. Besides, the “influence on ECAR values” in assay [2] is “minimal influence”. Also, the “genes regulated in the Apoptosis Arrays” value in assay [3] (100 μM Q10, gene BAG1) is “BAG1”; in assay [3] (100 μM Q10, gene CASP9), “CASP9”; in assay [3] (100 μM Q10, gene TNFRSF1A), “TNFRSF1A”. Besides, the “ATP Citrate Lysase ~kd band Normalized Intensity (HASMC vs. HepG2)” value is listed as 23341 in assay [4] (HASMC, 5g48-50); 25544 in assay [4] (HASMC, 5g48-100); 21439 in assay [4] (HASMC, 22G48-50); 19491 in assay [4] (HASMC, 22G48-100); 24106 in assay [4] (HepG2, 5g48-50); 22463 in assay [4] (HepG2, 5g48-100). The “ATP Citrate Lysase ~kd band Normalized Intensity (HASMC vs. HepG2)” value turned out to be 31235 in assay [4] (HepG2, 22G48-50) and 50588 in assay [4] (HepG2, 22G48-100). In addition, the “ATP Citrate Lysase ~kd band Normalized Intensity (HASMC vs. PACA2)” value amounted to 12056 in assay [4] (HASMC, 5g48-50); 15265 in assay [4] (HASMC, 5g48-100); 15857 in assay [4] (HASMC, 22G48-50); 13892 in assay [4] (HASMC, 22G48-100); 8027 in assay [4] (PACA2, 5g48-50); 4942 in assay [4] (PACA2, 5g48-100). Also, the “ATP Citrate Lysase ~kd band Normalized Intensity (HASMC vs. PACA2)” value in assay [4] (PACA2, 22G48-50) was 9537; in assay [4] (PACA2, 22G48-100) it was 14901.

(Values after patent publication US9205064B2, “Methods for the diagnosis of oncological disorders using epimetabolic shifters, multidimensional intracellular molecules, or environmental influencers” (Berg LLC, priority 2009, dated 2015).)
